RP-LC retention time data for 79 compounds are collected here from the METLIN SMRT retention time set (Domingo-Almenara et al. 2019).

The series is described as follows: gradient 5% acetonitrile 3 min, to 50% in 2 min, to 85% in 15 min, held 3 min, 100 µL/min. Conditions: column: Zorbax Extend-C18 2.1 x 50 mm; eluents: water / acetonitrile, 0.1% formic acid. Put shortly: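 A Zorbax Extend-C18 column (2.1 × 50 mm, 1.8 μm) run at 100 μL/min with water and acetonitrile, both containing 0.1% formic acid, separated mixtures of ~100 pure standards. The HPLC was coupled to a quadrupole time-of-flight mass spectrometer operated in positive and negative ionization mode, with dead and dwell volumes of 40 μL and 900 μL. Each retention time was taken from a computationally picked adduct peak that was then manually inspected.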
With `Cc1cnc(C2CC2)n1C1CCN(C(=O)C2(c3ccccc3)CC2)CC1`, the RP-LC retention time was found to be 636 s.
As for `CC(C)n1cnc(S(=O)(=O)N2CCC(C(=O)N3CCN(c4ccccn4)CC3)CC2)c1`, the figure is 571 s.
The result for `O=C(NCc1ccccc1Cl)c1nnc(-c2ccc(S(=O)(=O)N3CCCCC3)cc2)o1` reads 1030 s; that for `Cn1nc(-c2nc(C3CC3)no2)c2c1CCN(C(=O)c1ccncc1)C2`, 628 s; that for `CCNC(=O)NC1CCN(c2nc3cccnc3n(Cc3ccc(C)cc3)c2=O)CC1`, 1010 s.
The result for `CCOC(=O)c1sc(NC(C)=O)nc1-c1ccccc1` reads 848 s; that for `Cc1ccc(NC(=O)C2CCCN(c3cn[nH]c(=O)c3)C2)cc1C` (centres undefined), 742 s; that for `CCCC1c2nccn2CCCN1C(=O)c1c(C)noc1C` (centres undefined), 576 s.
Consider `O=C(NCCC1CCN(C(=O)Nc2ccccc2F)CC1)c1ccoc1`, for which the RP-LC retention time amounted to 713 s.
As to `COCCC1CCN(C(=O)c2ccc3nc[nH]c3c2)CC1`, the RP-LC retention time was found to be 572 s.
The result for `Cc1ccc(N2CC(c3noc(-c4ccc(C)cc4C)n3)CC2=O)cc1` (centres undefined) reads 1190 s; that for `Cc1cc(NC(=O)C2CCN(C(=O)c3cc(-c4ccco4)on3)CC2)no1`, 712 s; that for `COc1ccc(NC(=O)C2CC(=O)N(CCc3c[nH]c4ccc(Cl)cc34)C2)c(OC)c1` (centres undefined), 820 s.
The result for `O=S(=O)(c1cccn2c(SCc3ccncc3)nnc12)N1CCN(c2ccc(F)cc2)CC1` reads 663 s.
As for `O=C1NCCCCCN(C(=O)CC2CCCCC2)[C@@H]2C[C@@H](C(=O)N3CCc4ccccc4C3)C[C@H]12`, the figure is 933 s; as for `COc1c(C(=O)NCc2ccc3c(c2)OCO3)sc2ccc(Cl)cc12`, 1070 s.
In the case of `CCOc1cc(=O)n2c(c1C(=O)N1CCCc3ccccc31)CCCC2`, the RP-LC retention time stood at 707 s.
The result for `CC(=O)Nc1ccc(C2(C(=O)NCc3ccc(F)c(Cl)c3)CCC2)cc1` reads 795 s; that for `CCN1CCN(S(=O)(=O)c2cc(-c3nc(C)cs3)n(CC(=O)N3CCCCC3)c2)CC1`, 675 s.
As for `Nc1cc(C2CCN(C(=O)c3cc4ccccc4[nH]3)CC2)no1`, the figure is 713 s.
In turn, `Cc1oc(C2CCN(S(=O)(=O)c3ccccc3F)CC2)nc1C(=O)N1CCCC1` displayed an RP-LC retention time of 886 s.
As for `O=C(Cc1nnc2cc(-c3nc(C4CC4)no3)ccn12)N1CCSCC1`, the figure is 698 s; as for `O=C(NCCC1CCN(C(=O)Nc2cc(F)cc(F)c2)CC1)c1cccs1`, 861 s.
The result for `O=C(Cn1cnc2c(sc3nc(-c4ccccc4)ccc32)c1=O)Nc1ccc(Cl)cc1F` reads 1110 s; that for `CC(=O)Nc1ccc(C(=O)NC2CCN(c3cc(-c4ccc(Cl)cc4)[nH]n3)C2)cc1` (centres undefined), 675 s.
The result for `COc1ccc(CN(C)Cc2cc(=O)n3cc(Cl)ccc3n2)cc1OC` reads 606 s; that for `COc1ccc(CCNC(=O)[C@@H]2[C@H](c3cc(OC)c(OC)c(OC)c3)c3cc4c(cc3[C@H](O)[C@H]2CO)OCO4)cc1OC`, 699 s; that for `Fc1ccc(-c2nnc(Cc3nc(-c4cccc(C(F)(F)F)c4)no3)o2)cc1`, 1110 s.
In turn, `CC(C)n1nnc2cc(C(=O)N(C)CC(=O)Nc3cccc(Br)c3)ccc21` displayed an RP-LC retention time of 805 s.
The result for `O=S(=O)(Cc1ccc(F)cc1Cl)N1CCc2nc(-c3ccc(F)cc3)ncc2C1` reads 1100 s.
As for `Cc1ccc(C(=O)N2C[C@@H]3C[C@H]2C[C@@H]3NS(=O)(=O)c2cccs2)cc1F`, the figure is 827 s; as for `O=C(Cn1cc(-c2nnco2)c2ccccc21)NCc1cccc(Cl)c1`, 817 s; as for `Cc1cc(C(=O)NCCN2CCN(C(=O)c3cccs3)CC2)c(C)o1`, 563 s.
In the case of `O=C(COC(=O)c1cccnc1)Nc1ccc2c(c1)OCO2`, the RP-LC retention time worked out at 640 s.
As for `CCN1C(=O)c2cccnc2Sc2cc(CNC(=O)c3sccc3C)ccc21`, the figure is 779 s; as for `COc1cccc(-c2nc(C3CCN(S(=O)(=O)c4ccc(C(C)C)cc4)CC3)no2)c1`, 1300 s; as for `Nc1nc(Cl)cc(Nc2ccccc2Cl)n1`, 845 s.
As for `CCN1C(=O)c2cccnc2Sc2cc(NC(=O)Cc3c(F)cccc3Cl)ccc21`, the figure is 870 s; as for `COc1ccc2[nH]cc(CCNC(=O)C(C)C3CCN(S(=O)(=O)c4cccs4)CC3)c2c1` (centres undefined), 827 s.
As for `CC(C)(C)N(CC(=O)N(Cc1ccco1)CC1CCCO1)C(=O)Cc1ccccc1` (centres undefined), the figure is 907 s.
For the compound `CN=C(NC#N)Nc1ccc(C2=NNC(=O)CC2C)cc1` (centres undefined), the RP-LC retention time worked out at 672 s.
As for `O=C1NC2=C(C(=O)N(CCC3=CCCCC3)C2)C(c2ccccc2F)N1` (centres undefined), the figure is 684 s.
As for `C=CCN1CC[C@@]2(C)c3cc(O)ccc3CC1[C@@H]2C`, the figure is 644 s.
`Cn1nccc1-c1cccc(-c2noc(-c3ccccc3F)n2)c1` came in with an RP-LC retention time of 1070 s.
As for `Cc1noc(-c2nn(C)c3c2CN(C(=O)C2CCCC2)CC3)n1`, the figure is 722 s; as for `O=C(Cn1cnc(-c2ccc(Cl)cc2)cc1=O)NCc1cccnc1`, 568 s; as for `O=C1c2cccc3cccc(c23)C(=O)N1CCCC(=O)N1CCc2ccccc21`, 908 s.
As for `O=C(CSc1ccc(S(=O)(=O)C2CCCCC2)nn1)NCc1cc(F)cc(F)c1`, the figure is 833 s.
As for `CCOC(=O)c1cnc2c(-c3ccc(Br)cc3)c(C)nn2c1N`, the figure is 1230 s; as for `Cc1ccc(CS(=O)Cc2ccc(C(=O)N3CCN(c4ccccn4)CC3)o2)cc1` (centres undefined), 619 s; as for `CC(C(=O)Nc1ccc(F)cc1F)C1CCN(C(=O)Nc2ccccc2)CC1` (centres undefined), 834 s.
In turn, `CCCNc1cc(N2CCCC(CCC(=O)N3CCN(C(=O)c4ccco4)CC3)C2)ncn1` (centres undefined) displayed an RP-LC retention time of 628 s.
The result for `CCc1ccc(OCc2nc(CCN(C)C(=O)Nc3ccc(OC)c(OC)c3)no2)cc1` reads 856 s; that for `NC(=O)C1(c2cccc(F)c2)CC1`, 694 s.
As for `O=C(NCc1ccccc1)C1CCN(C(=O)c2ncn3c2COC(c2ccccc2)C3)CC1` (centres undefined), the figure is 760 s; as for `Cc1noc(C)c1S(=O)(=O)NCC1CCN(C(=O)Nc2ccc(F)cc2)CC1`, 742 s; as for `O=C(NCC(O)Cc1ccccc1)c1cccc(Cl)c1` (centres undefined), 757 s.
As for `CC1CCCCN1c1nc(-c2ccc(C(C)(C)C)cc2)nc2ccccc12` (centres undefined), the figure is 1050 s; as for `N#Cc1ccc(C(=O)N2CCN3CCS(=O)(=O)N(C4CC4)C(=O)C3C2)cc1` (centres undefined), 955 s.
Turning to `CCOc1ccc(-c2noc(CN3C(=O)COc4ccccc43)n2)cc1OC`, the RP-LC retention time came out at 968 s.
The result for `N#CCCN1CCN(c2ccc(NC(=O)c3ccc(Br)cc3)c(C(=O)O)c2)CC1` reads 678 s; that for `CCOc1ccc(-c2noc(N3CCC(C(=O)N4CCCC4)CC3)n2)cc1OC`, 782 s.
The result for `Cc1cc(C)n2cc(CSc3nc4cc([N+](=O)[O-])ccc4s3)nc2n1` reads 623 s; that for `O=C(CSc1ccc(N2CCCC(C(=O)NC3CC3)C2)nn1)Nc1ccccc1F` (centres undefined), 643 s.
As for `CCc1nccn1Cc1nc(-c2ccc(OC)c(OC)c2)no1`, the figure is 618 s; as for `O=C(c1cccs1)N1[C@H]2CC[C@@H]1c1cnc(-c3ccccc3)nc1C2`, 907 s.
On to `COc1cccc(NC(=O)NCC(c2cccnc2)c2c[nH]c3ccccc23)c1` (centres undefined), for which the RP-LC retention time turned out to be 662 s.
In turn, `O=C([C@@H]1C[C@H](F)CN1S(=O)(=O)c1ccc(F)cc1F)N1CCCCC1` returned an RP-LC retention time of 812 s.
The result for `Cc1nc(-c2ccc3c(c2)n(CC(=O)Nc2ccc(S(N)(=O)=O)cc2)c(=O)n3C(C)C)no1` reads 707 s.
The result for `COc1ccc(N2CCN(C(=O)CN3CCN(Cc4cccc(Cl)c4)C3=O)CC2)cc1` reads 784 s; that for `Cn1cccc1C(=O)C(=O)Nc1cccc2c1CCCC2`, 928 s; that for `O=C(CCC1CCN(c2cc(NC3CC3)ncn2)CC1)NCc1ccc(F)cc1Cl`, 689 s.
The result for `CN1CCCn2cc(S(=O)(=O)Nc3ccc(F)cc3)cc2C1=O` reads 670 s.
The compound `CCOC(=O)N1CCC2(CC1)N=C(c1ccc(OCC)cc1)CC(c1cc(Cl)ccc1O)N2` (centres undefined) yielded an RP-LC retention time of 726 s.
As for `CCCn1ncc(N2CCC(C(=O)NCC3CCCO3)CC2)cc1=O` (centres undefined), the figure is 608 s; as for `CCCN(CC1CC1)C(=O)[C@@H]1[C@H](c2cc(OC)c(OC)c(OC)c2)c2cc3c(cc2[C@H](O)[C@H]1CO)OCO3`, 740 s; as for `Cc1ccccc1S(=O)(=O)N1CCC(c2nc(C(=O)N(C)C)c(C)o2)CC1`, 818 s.
`Cn1nc(C(=O)N2CCCC2)c2c1CCN(C(=O)CCC(=O)NCCC1=CCCCC1)C2` returned an RP-LC retention time of 734 s.
`CCc1nnc(NC(=O)c2ccc3c(c2)c(=O)cc(C)n3CC)s1` returned an RP-LC retention time of 571 s.
